# Where a SMILES comes first, the peptide text is derived from it. [ ]: non-standard residue; d: D form. The star is where a group is joined. Benzoyl(4-tBu) = CC(C)(C)c1ccc(C(=O)*)cc1; Lys(Et2) = CCN(CC)CCCC[C@H](N)C(=O)O
# Key:
# [1] = system: ChDs from other CBX proteins including CBX1/3/5 (HP1β/γ/α) and CBX2/4/6/8; conditions: cited from earlier work
# [2] = system: ccm2 mutants; test: Pharmacological treatment of zebrafish ccm2 mutants (CCM disease model); assay type: in vivo; conditions: for posterior caudal vein plexus: ccm2 mutants after treatment with inhibitor, Fig. 4A right column; for heart phenotype (strongly enlarged and ballooning heart): ccm2 mutants treated with inhibitor, Fig. 4A left column
# Procedure: In ccm2 mutants the heart is strongly enlarged and ballooning. In ccm2 mutants treated with MS37452 or MS351, this phenotype is suppressed and is reminiscent of wild type. Similarly, the posterior caudal vein plexus in ccm2 mutants is fenestrated after treatment with the inhibitors. Quantifications of these phenotype classes are in B). To elucidate whether a pharmacological suppression of Cbx7a has the same effect on the zebrafish CCM model, specific small compound inhibitors of CBX7 were tested (MS37452 and MS351). Both inhibitors block the binding of CBX7 to histone modifications on genomic DNA and suppress the epigenetic function of this protein within the Polycomb repressive complex (PRC1) (Fig. 3). Both inhibitors suppress the expression of the CCM phenotype in zebrafish disease models (Fig. 4). The effects of both inhibitors are reminiscent of the genetic knockout of cbx7a in ccm2 mutants. Heart phenotypes is shown in Fig. 4A left column while the region of the posterior caudal vein plexus in Fig. 4A right column. In ccm2 mutants the heart is strongly enlarged and ballooning. In ccm2 mutants treated with MS37452 or MS351, this phenotype is suppressed and is reminiscent of wild type. Similarly, the posterior caudal vein plexus in ccm2 mutants is fenestrated after treatment with the inhibitors. Quantifications of these phenotype classes are shown Fig. 4B. The y-axis represents the ratio of the amounts of embryos with suppressed ballooning heart and abnormal caudal vein plexus phenotype to the amounts of embryos with ballooning heart and abnormal caudal vein plexus phenotype.
# [3] = target: T1, CBX7ChD (Homo sapiens, UniProt O95931); conditions: estimated; determined by NMR titration; CBX7ChD alone; cited from earlier work
# T1 sequence (O95931 11-69 limits assumed): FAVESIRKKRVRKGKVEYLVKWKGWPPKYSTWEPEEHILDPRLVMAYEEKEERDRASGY
# [4] = target: T2, chromodomains of CBX7 (Homo sapiens, UniProt O95931); conditions: CBX7 chromodomain; cited from earlier work
# T2 sequence (O95931 11-69 limits assumed): T1 sequence (O95931 11-69 limits assumed)
Compound,binding to ChDs from other CBX proteins [1],posterior caudal vein plexus [2],heart phenotype (strongly enlarged and ballooning heart) [2],Kd [3],Kd [4]
Cc1ccccc1Cn1c(=N)n(CC(O)c2ccc(Cl)c(Cl)c2)c2ccccc21.Cl (stereo not shown) [MS351],does not bind,fenestrated,suppressed,~500 µM,–
COc1cccc(C(=O)N2CCN(C(=O)COc3cccc(C)c3)CC2)c1OC [MS37452],–,fenestrated,suppressed,–,–
CCN(CC)CCCC[C@H](NC(=O)[C@H](CC(C)C)NC(=O)[C@H](C)NC(=O)[C@H](Cc1ccccc1)NC(=O)c1ccc(C(C)(C)C)cc1)C(=O)N[C@@H](CO)C(=O)OC [UNC3866] ({Benzoyl(4-tBu)}-FAL[Lys(Et2)]S-OMe),–,–,–,–,~0.1 µM
